Data as given in patent publication US10993983B2, “Cyclic peptide epitopes and small-molecule mimics for inducing autophagy” (TRUSTEES OF TUFTS COLLEGE, priority 2016, dated 2021).
Marks after values point to notes of the source that are not given here. Where no end group is shown, it is not given here. [ ]: non-standard residue; d: D form. c(FΦRRRRE) = cyclic peptide with F and E termini bonded, Φ = L-2-naphthylalanine

Key:
[1] = tested on: p62; assay: p62 degradation assay (p62/actin immunoblot);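 for Activity (μM) 10, p62/actin assay activity: HeLa cells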;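 for Activity (μM) 100, p62/actin assay activity: HeLa cells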;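 for Activity (μM) 20, p62/actin assay activity: HeLa cells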;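 for Activity (μM) 30, p62/actin assay activity: HeLa cells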;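 for Activity (μM) 50, p62/actin assay activity: HeLa cells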; type: cell-based; design: key: −: activity not reported; 0: decreased vs. WT; +: similar to WT; ++: modest increase vs. WT; +++: significant increase vs. WT; conditions: for Activity (μM) 5, p62/actin assay activity: 5 μM; for Activity (μM) 10, p62/actin assay activity: 10 μM; for Activity (μM) 30, p62/actin assay activity: 30 μM; for Activity (μM) 50, p62/actin assay activity: 50 μM; for Activity (μM) 100, p62/actin assay activity: 100 μM; for Activity (μM) 20, p62/actin assay activity: 20 μM; for Activity (μM) 10, starred cell, p62/actin assay activity / Activity (μM) 30, starred cell, p62/actin assay activity: Table 8; for Activity (μM) 10, starred cell, p62/actin assay activity: 10 μM marked * (footnote: data taken at 20 instead of 30 μM); for Activity (μM) 30, starred cell, p62/actin assay activity: *Data taken at 20 instead of 30 μM
Description: (§1) Cells were treated with peptide in OPTI-MEM (Thermo Scientific) acidified with 0.15% (v/v) 6N HCl for 3 hour. Cells were rinsed with Dulbecco's phosphate buffered saline (PBS) and lysed in lysis buffer (20 mM HEPES, 150 mM NaCl, 1 mM EDTA, 1% Triton X-100, protease inhibitor cocktail (Roche) on ice for 1 hour. Cell lysates were centrifuged at 16,000 g for 10 min at 4° C. and analyzed by SDS-PAGE and transferred to PVDF membranes. The membranes were blocked 5% non-fat dry milk (NFDM) in PBST (PBS+0.05% Tween-20) for 1 hour, then incubated overnight at 4° C. with primary antibody in 5% NFDM in PBST. The blots were washed with PBST and incubated with HRP-conjugated secondary antibodies diluted in 5% NFDM in PBST for 1 hour at room temperature. Membranes were washed with PBST and visualized with SuperSignal West Pico Chemiluminescent Substrate (Thermo Scientific). Semi-quantitative results were obtained by noting the lowest concentration at which both p62 degradation and LC3-I to LC3-II conversion were observed.
(§2) Compounds 1-10 were evaluated using the assays described in Examples 4 and 5. Activity for each compound was measured in the p62 degradation assay and the LC3 marker assay as described herein. The activity at each concentration of peptide is given as, for example, (0/+) where 0 would be the p62/actin assay activity and + would be the LC3 assay activity.

[2] = tested on: LC3; assay: LC3 marker assay (LC3-I to LC3-II conversion immunoblot);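 for Activity (μM) 10, LC3 assay activity: HeLa cells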;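 for Activity (μM) 100, LC3 assay activity: HeLa cells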;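 for Activity (μM) 20, LC3 assay activity: HeLa cells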;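 for Activity (μM) 30, LC3 assay activity: HeLa cells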;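 for Activity (μM) 50, LC3 assay activity: HeLa cells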; type: cell-based; design: key: −: activity not reported; 0: decreased vs. WT; +: similar to WT; ++: modest increase vs. WT; +++: significant increase vs. WT; conditions: for Activity (μM) 5, LC3 assay activity: 5 μM; for Activity (μM) 10, LC3 assay activity: 10 μM; for Activity (μM) 30, LC3 assay activity: 30 μM; for Activity (μM) 50, LC3 assay activity: 50 μM; for Activity (μM) 100, LC3 assay activity: 100 μM; for Activity (μM) 20, LC3 assay activity: 20 μM; for Activity (μM) 10, starred cell, LC3 assay activity / Activity (μM) 30, starred cell, LC3 assay activity: Table 8; for Activity (μM) 10, starred cell, LC3 assay activity: 10 μM marked * (footnote: data taken at 20 instead of 30 μM); for Activity (μM) 30, starred cell, LC3 assay activity: *Data taken at 20 instead of 30 μM
Description: as §1, §2

[3] = Table 8, control compound T25, first symbol
[4] = Table 8, control compound T25, second symbol
[5] = Table 3, control vehicle, first symbol of cell
[6] = Table 3, control vehicle, first symbol
[7] = Table 3, control vehicle, second symbol of cell
[8] = Table 3, control vehicle, second symbol

Sequence	Activity (μM) 10, p62/actin assay activity [1, 3]	Activity (μM) 50, p62/actin assay activity [1, 3]	Activity (μM) 100, p62/actin assay activity [1, 3]	Activity (μM) 10, LC3 assay activity [2, 4]	Activity (μM) 50, LC3 assay activity [2, 4]	Activity (μM) 100, LC3 assay activity [2, 4]	further results
VCNATCHIWH [Compound 34]	0/0	+++/+++	+++/+++	0/0	+++/+++	+++/+++	Activity (μM) 5, p62/actin assay activity [1, 3]: 0/0; Activity (μM) 30, p62/actin assay activity [1, 3]: +; Activity (μM) 5, LC3 assay activity [2, 4]: 0/0; Activity (μM) 30, LC3 assay activity [2, 4]: ++
VCNATCHIWH [Compound 35]	0/0	+++	+++	0/0	++	++	Activity (μM) 30, p62/actin assay activity [1, 3]: 0; Activity (μM) 30, LC3 assay activity [2, 4]: +
VCNATCHIWH [Compound 36]		0/0	0/0		0/0	0/0	
VCNATCHIWH [Compound 44]		0/0	0/0		0/0	0/0	
VCNATCHIWH [Compound 48]		+++/+++	+++/+++		+++/+++	+++/+++	
VCNATCHIWH [Compound 49]		+++/+++	+++/+++		+++/+++	+++/+++	
VCNATCHIWH [Compound 50]		++	++		+++	+++	
VCNATCHIWH [Compound 51]		+++/+++	+++/+++		+++/+++	+++/+++	
VCNATCHIWR (V[dC]NAT[dC]HIWR; cysteine pairing not given here) [Compound 38]		0/0	0/0		0/0	0/0	
VCNATCRIWR (V[dC]NAT[dC]RIWR; not fully specified (C-terminus); cysteine pairing not given here) [Compound 42]		0/0	0/0		0/0	0/0	
VWNATCHIWC [Compound 59]	0/0			0/0			Activity (μM) 5, p62/actin assay activity [1, 3]: 0/0; Activity (μM) 30, p62/actin assay activity [1, 3]: 0/0; Activity (μM) 5, LC3 assay activity [2, 4]: 0/0; Activity (μM) 30, LC3 assay activity [2, 4]: 0/0
VWNATCHIWC [Compound 65]		0/0			0/0		
VWNATFHIWH (not fully specified (N-terminus, C-terminus)) [Compound 5, likely pa-10mer]		0/0	0/0		0/0	0/0	Activity (μM) 10, p62/actin assay activity [1, 5]: 0/0; Activity (μM) 20, p62/actin assay activity [1, 6]: 0/0; Activity (μM) 30, p62/actin assay activity [1, 3]: 0/0; Activity (μM) 50, p62/actin assay activity [1, 6]: 0; Activity (μM) 100, p62/actin assay activity [1, 6]: +/+; Activity (μM) 10, starred cell, p62/actin assay activity ([1]; first symbol): 0/0*; Activity (μM) 10, LC3 assay activity [2, 7]: 0/0; Activity (μM) 20, LC3 assay activity [2, 8]: 0/0; Activity (μM) 30, LC3 assay activity [2, 4]: 0/0; Activity (μM) 50, LC3 assay activity [2, 8]: +; Activity (μM) 100, LC3 assay activity [2, 8]: +/+; Activity (μM) 10, starred cell, LC3 assay activity ([2]; second symbol): 0/0*
VWNATFHIWH (not fully specified (N-terminus, C-terminus)) [Compound 64]	0/0			0/0			Activity (μM) 30, starred cell, p62/actin assay activity ([1]; first symbol): 0/0*; Activity (μM) 30, starred cell, LC3 assay activity ([2]; second symbol): 0/0*
VWNATFHIWHD (not fully specified (N-terminus, C-terminus)) [Compound 6, likely pa-11mer]		++	0/0		0	0/0	Activity (μM) 10, p62/actin assay activity [1, 5]: 0/0; Activity (μM) 20, p62/actin assay activity [1, 6]: 0/0; Activity (μM) 30, p62/actin assay activity [1, 3]: 0/0; Activity (μM) 50, p62/actin assay activity [1, 6]: 0/0; Activity (μM) 100, p62/actin assay activity [1, 6]: 0/0; Activity (μM) 10, starred cell, p62/actin assay activity ([1]; first symbol): 0/0*; Activity (μM) 10, LC3 assay activity [2, 7]: 0/0; Activity (μM) 20, LC3 assay activity [2, 8]: 0/0; Activity (μM) 30, LC3 assay activity [2, 4]: 0/0; Activity (μM) 50, LC3 assay activity [2, 8]: 0/0; Activity (μM) 100, LC3 assay activity [2, 8]: 0/0; Activity (μM) 10, starred cell, LC3 assay activity ([2]; second symbol): 0/0*
VWNATFHIWHD [62] ({c(FΦRRRRE)}-VWNATFHIWHD; not fully specified; printed as R1 cyclic c(FΦRRRRE) attached) [Compound 62]	++			+++			Activity (μM) 30, starred cell, p62/actin assay activity ([1]; first symbol): +++/+++*; Activity (μM) 30, starred cell, LC3 assay activity ([2]; second symbol): +++/+++*
VWNATFHIWHD [63] (not fully specified (N-terminus, C-terminus)) [Compound 63]	0			+			Activity (μM) 30, starred cell, p62/actin assay activity ([1]; first symbol): 0; Activity (μM) 30, starred cell, LC3 assay activity ([2]; second symbol): +++
YGRKKRRQRRRGGVWNATFHIWHD [7] (Ac-YGRKKRRQRRRGGVWNATFHIWHD-NH2) [Compound 7, likely Tat-11mer]							Activity (μM) 10, p62/actin assay activity [1, 5]: 0; Activity (μM) 20, p62/actin assay activity [1, 6]: +++/+++; Activity (μM) 10, LC3 assay activity [2, 7]: ++; Activity (μM) 20, LC3 assay activity [2, 8]: +++/+++
YGRKKRRQRRRGGVWNATFHIWHD [8] (not fully specified (N-terminus, C-terminus)) [Compound 8]							Activity (μM) 10, p62/actin assay activity [1, 5]: 0; Activity (μM) 20, p62/actin assay activity [1, 6]: 0; Activity (μM) 50, p62/actin assay activity [1, 6]: ++; Activity (μM) 10, LC3 assay activity [2, 7]: +; Activity (μM) 20, LC3 assay activity [2, 8]: ++; Activity (μM) 50, LC3 assay activity [2, 8]: +++
